Read-outs that look alike come from different tables or passages of the source.
Molecular target: eel acetylcholinesterase (AChE) (Electrophorus electricus, UniProt O42275)
Assay: Eel AChE fluorescence assay (AMPLEX Red kit)
Type: biochemical
Conditions: for inhibition of AChE activity (in words): eel AChE, 20 μM
Experimental: Enzymatic reactions consisted of 50 μM acetylcholine, 200 μM AIVIPLEX™ Red reagent, 1 U/mL horseradish peroxidase, 0.1 U/mL choline oxidase and 0.096 U/mL acetylcholinesterase, with 30 1% DMSO. […] Control reactions lacking acetylcholinesterase but containing 5 μM H2O2 in presence of compounds were analyzed at the same wavelength to exclude compounds that display assay interference. Dose-response curves were performed in duplicate.

[1] = read-out: inhibition of enzyme activity compared to DMSO control (screen)
[2] = eel AChE activity, at 20 μM, read-out: Percentage inhibition

eel acetylcholinesterase (AChE), sequence (O42275 24-633): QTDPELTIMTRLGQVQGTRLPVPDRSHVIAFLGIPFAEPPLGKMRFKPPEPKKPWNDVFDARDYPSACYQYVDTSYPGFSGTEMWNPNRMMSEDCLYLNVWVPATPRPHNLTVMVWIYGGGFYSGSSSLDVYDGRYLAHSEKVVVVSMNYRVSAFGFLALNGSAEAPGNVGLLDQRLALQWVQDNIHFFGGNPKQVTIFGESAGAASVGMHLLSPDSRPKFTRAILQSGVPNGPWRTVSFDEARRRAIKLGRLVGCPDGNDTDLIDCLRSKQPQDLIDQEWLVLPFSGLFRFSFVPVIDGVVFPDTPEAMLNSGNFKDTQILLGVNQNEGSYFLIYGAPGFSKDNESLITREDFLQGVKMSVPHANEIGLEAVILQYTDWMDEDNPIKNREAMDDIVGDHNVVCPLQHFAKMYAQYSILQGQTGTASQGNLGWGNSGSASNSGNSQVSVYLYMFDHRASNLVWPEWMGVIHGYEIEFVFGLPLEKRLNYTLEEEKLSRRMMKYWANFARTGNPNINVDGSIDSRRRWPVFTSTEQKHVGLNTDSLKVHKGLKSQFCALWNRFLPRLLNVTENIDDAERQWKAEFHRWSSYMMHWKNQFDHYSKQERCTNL

Cc1cc(N)c2ccccc2[n+]1CCCCCCCCCC[n+]1c(C)cc(N)c2ccccc21 [dequalinium chloride]
assay interference test versus enzyme-free H2O2 reaction (parallel dose-response with 5 μM H2O2): likely represent true inhibition of the enzyme
inhibition at 20 µM [1]: ≥ 50%
Hill slope, eel AChE dose-response (sixteen-point serial dilution, four-parameter fit): 0.87

CCN(CC)CCNc1ccc(C)c2sc3ccccc3c(=O)c12 [lucanthone]
inhibition at 20 µM [2]: 11%
inhibition of AChE activity (in words): did not show appreciable activity

Nc1c2ccccc2nc2ccccc12 [aminacrine]
inhibition at 20 µM [2]: 99.2%

CO[C@H]1/C=C/O[C@@]2(C)Oc3c(C)c(O)c4c(O)c(c5c(nc6cc(C)ccn65)c4c3C2=O)NC(=O)/C(C)=C\C=C\[C@H](C)[C@H](O)[C@@H](C)[C@@H](O)[C@@H](C)[C@H](OC(C)=O)[C@@H]1C [rifaximin]
inhibition at 20 µM [1]: ≥ 50%

O=C1c2cc(O)ccc2-c2ccc(O)cc21 [2,7-dihydroxy-9H-fluoren-9-one]
inhibition at 20 µM [2]: 30%
inhibition of AChE activity (in words): neither fluorenone, nor the close derivative 2,7-dihydroxy-9H-fluoren-9-one inhibit AChE activity

— patent publication US20230330045A1 (priority 2020, published 2023)
